Holding throughout (format): functional, cell-based
Test [1] relates to L1210. The test can be described thus: In vitro antitumor activity against murine lymphoma L1210 cells by using MTT assay; No significant cytotoxicity. The conditions noted are these: Mus musculus. Background: Formazan colour is commonly taken as a measure of viable cells.
Test [2] relates to KB. Put plainly: In vitro antitumor activity against human epidermoid carcinoma KB cells by using MTT assay; No significant cytotoxicity.
The test system of test [3] is L1210. Put plainly: In vitro antitumor activity against murine lymphoma L1210 cells by MTT assay. The conditions noted are these: Mus musculus.
For test [4], the system named is KB. The test can be described thus: In vitro antitumor activity against human epidermoid carcinoma KB cells by MTT assay.

By IC50 is commonly meant the midpoint of a concentration-inhibition curve.

As for `CCCCCCCCCCCCn1c2nc(=O)[nH]c(=O)c-2cc2cc(C(F)(F)F)ccc21`, the IC50 in the test on L1210 [1] and in the test with KB [2] was more than 200 µM throughout.

Regarding `CCCCCCCCCCCCn1c2nc(=O)n(C)c(=O)c-2cc2cccnc21`, the 50% inhibitory concentration (IC50) in the test with L1210 [1] and in the test with KB [2] was more than 200 µM throughout.

For `CCCCCCCCn1c2nc(=O)n(CC(=O)OCC)c(=O)c-2cc2ccccc21`, the IC50 in the test with L1210 [1] and with KB [2] was more than 200 µM in each case.

For `CCCCCCCCCCCCn1c2nc(=O)n(C)c(=O)c-2cc2c([N+](=O)[O-])cccc21`, the IC50 was 1.6 µM with L1210 [3] and 6.8 µM in the test on KB [4].

With `CCCCCCCCCCCCn1c2nc(=O)n(C)c(=O)c-2cc2ncccc21`, the IC50 in the test with L1210 [1] and with KB [2] was more than 200 µM each time.

With `CCCCCCCCCCCCn1c2nc(=O)n(C)c(=O)c-2cc2ccc([N+](=O)[O-])cc21`, the IC50 is 5.2 µM with L1210 [3] and 8 µM in the test on KB [4].

For `CCCCCCCCCCCCn1c2nc(=O)n(C)c(=O)c-2cc2cccc([N+](=O)[O-])c21`, the results for the IC50 with L1210 [3] and with KB [4] were 7.8 µM and 20 µM, respectively.

As for `CCCCCCCCCCCCn1c2nc(=O)[nH]c(=O)c-2cc2cc([N+](=O)[O-])ccc21`, the results for the IC50 in the test on L1210 [3] and in the test with KB [4] were 6.8 µM and 26.4 µM, respectively.

With `CCCCCCCCCCCCn1c2nc(=O)n(C)c(=O)c-2cc2ccccc21`, the IC50 in the test with L1210 [1] and in the test with KB [2] was more than 200 µM in each case.

Consider `CCCCCCCCCCCCn1c2nc(=O)[nH]c(=O)c-2cc2ccc([N+](=O)[O-])cc21`, for which the IC50 in the test on L1210 [3] came out at 2.5 µM; in the test on KB [4] it was 12.8 µM.

As for `CCCCCCCCCCCCn1c2nc(=O)n(C)c(=O)c-2cc2cc([N+](=O)[O-])ccc21`, the IC50 is 21.6 µM with L1210 [3] and 15.8 µM with KB [4].

Turning to `CCCCCCCCn1c2nc(=O)n(-c3ccccc3)c(=O)c-2cc2ncccc21`, the IC50 with L1210 [1] and with KB [2] was more than 200 µM in each case.

Take `CCCCCCCCn1c2nc(=O)n(CC(=O)OCC)c(=O)c-2cc2cc([N+](=O)[O-])ccc21`: the IC50 was determined as 12 µM in the test on L1210 [3] and 30 µM in the test with KB [4].

As to `CCCCCCCCn1c2nc(=O)n(-c3ccccc3)c(=O)c-2cc2ccc([N+](=O)[O-])cc21`, the results for the IC50 in the test on L1210 [3] and with KB [4] were 2.6 µM and 12.4 µM, respectively.

Consider `CCCCCCCCCCCCn1c2nc(=O)[nH]c(=O)c-2cc2cccc([N+](=O)[O-])c21`, for which the IC50 with L1210 [3] amounted to 1.8 µM; with KB [4], 2.6 µM.

Take `CCCCCCCCCCCCn1c2nc(=O)[nH]c(=O)c-2cc2ccc(C(F)(F)F)cc21`: the IC50 in the test on L1210 [1] and in the test with KB [2] was more than 200 µM in each case.

With `CCCCCCCCn1c2nc(=O)n(-c3ccccc3)c(=O)c-2cc2cccc([N+](=O)[O-])c21`, the IC50 stood at 1.5 µM with L1210 [3] and 6 µM in the test with KB [4].

With `CCCCCCCCn1c2nc(=O)n(-c3ccccc3)c(=O)c-2cc2c([N+](=O)[O-])cccc21`, the figures for the IC50 in the test on L1210 [3] and in the test on KB [4] were 2.6 µM and 8.4 µM, respectively.

Regarding `CCCCCCCCn1c2nc(=O)n(CC(=O)OCC)c(=O)c-2cc2c([N+](=O)[O-])cccc21`, the results for the IC50 in the test on L1210 [3] and in the test on KB [4] were 3 µM and 7.6 µM, respectively.

As for `CCCCCCCCCCCCn1c2nc(=O)[nH]c(=O)c-2cc2ccccc21`, the IC50 with L1210 [1] and in the test with KB [2] was more than 200 µM in each case.

On to `CCCCCCCCCCCCn1c2nc(=O)[nH]c(=O)c-2cc2c([N+](=O)[O-])cccc21`, for which the IC50 in the test with L1210 [3] worked out at 0.4 µM; with KB [4], 3.2 µM.

Regarding `CCCCCCCCn1c2nc(=O)n(CC(=O)OCC)c(=O)c-2cc2ccc([N+](=O)[O-])cc21`, the IC50 in the test with L1210 [3] is 8.4 µM; in the test on KB [4], 7.6 µM.

Take `CCCCCCCCn1c2nc(=O)n(-c3ccccc3)c(=O)c-2cc2ccccc21`: the half-inhibitory concentration (IC50) in the test on L1210 [1] and in the test with KB [2] was more than 200 µM in each case.

In the case of `CCCCCCCCn1c2nc(=O)n(CC(=O)OCC)c(=O)c-2cc2cccc([N+](=O)[O-])c21`, the results for the IC50 in the test on L1210 [3] and in the test on KB [4] were 4 µM and 3.6 µM, respectively.

Turning to `CCCCCCCCn1c2nc(=O)n(-c3ccccc3)c(=O)c-2cc2cc([N+](=O)[O-])ccc21`, the values for the IC50 in the test on L1210 [3] and with KB [4] were 9.6 µM and 7.6 µM, respectively.

As to `CCCCCCCCn1c2nc(=O)n(-c3ccccc3)c(=O)c-2cc2cccnc21`, the half-inhibitory concentration (IC50) in the test on L1210 [1] and in the test on KB [2] was more than 200 µM each time.

As to `CO[C@@]12[C@H](COC(N)=O)C3=C(C(=O)C(C)=C(N)C3=O)N1C[C@@H]1N[C@@H]12` [MITOMYCIN], the 50% inhibitory concentration (IC50) with L1210 [3] came out at 0.6 µM; with KB [4], 0.4 µM.

Source of the values: ChEMBL document CHEMBL1128820, “Synthesis and evaluation of nitro 5-deazaflavins as novel bioreductive antitumor agents” (Bioorg Med Chem Lett, 1995).
